{"source": "patent US8324280B2", "about": "“Treatment of prostate cancer with DDC inhibitor” (The University of British Columbia, priority 2008, dated 2012)", "key": {"LNCaP cells": {"system": "LNCaP cells", "assay": "MTS cell proliferation assay, androgen-dependent LNCaP cells", "assay_type": "cell-based, human", "conditions": "50 μM", "method": "Cell proliferation assays were performed using the 3-(4,5-dimethylhiazol-2-yl)-5-(3-carboxymethoxyphenyl)-2-(4-sulfophenyl)-2H-tetrazolium Assay (MTS) according to the manufacturer's protocol, with minor modifications (Promega). LNCaP cells were plated in 96-well plates at a density of 3000 cells per well and incubated in RPMI medium containing 5% CSS for one day. On the following day, the DDC inhibitors, carbidopa (25 and 50 μM) and NSD-1015 (10 μM)±0.1 nM R1881 were added to each well in charcoal-stripped serum (CSS; Hyclone, VWR) RPMI media. The cells were harvested at days 0, 2, 4, 6 and 8, with a medium change every 3 days. Each time point was measured with 6 replicates.\nStudent's t-test (two-sample equal variance) was used to evaluate statistically significant differences. All calculated p-values were two-sided and those less than 0.05 were considered statistically significant."}, "[1]": {"system": "neuroendocrine cancer cell lines", "conditions": "including a carcinoid cancer and a small cell lung cancer cell line; cited from earlier work"}, "C4-2 xenografts": {"system": "C4-2 xenografts", "assay": "Androgen-independent C4-2 tumour xenografts in pre-castrated mice", "assay_type": "in vivo", "method": "Parental C4-2 cells were inoculated subcutaneously (s.c.), after resuspension in 0.1 mL of Matrigel (Becton Dickinson Labware), into two flank regions (2.5×10^6 cells/site) of 6 to 8 week old castrated (to ensure tumors will be androgen-independent) male athymic nude mice (Harlan Sprague Dawley, Inc.) via a 27-gauge needle under halothane anesthesia. Tumour volume and serum PSA measurements (blood collected from the tail vein) were performed once per week after tumours became palpable. PSA levels were measured by ELISA (ClinPro International) and tumour size was calculated by the formula; length×width×depth×0.5236. Once serum PSA values reached 75-100 ng/mL, mice were treated with or without carbidopa. Carbidopa was purchased from Sigma and dissolved in DMSO. The solution was diluted in PBS to a final concentration of 10% DMSO and sterilized through a 0.2 μm filter. Carbidopa solution was injected intraperitoneally into half of the mice (25 mg per kg of body weight) for the +carbidopa groups, while the remaining mice received vehicle injections consisting of 10% DMSO in PBS (−carbidopa groups). Injections were carried out daily for the duration of the experiment. Each animal group contained 2-3 mice. PSA measurements were used to calculate PSA velocity and volume measurements were used to determine the tumour growth rate for all groups with linear regression slope analysis (see Statistical Analysis below). PSA velocity was defined as the increase in PSA level (normalized to pre-treatment value set at 100%) divided by number of days that PSA was reliably measurable (21 days). […] All animal procedures were performed according to the guidelines of the Canadian Council of Animal Care and with appropriate institutional certification. C4-2 xenograft tumour volume and PSA values (−/+carbidopa) were used for linear regression slope analysis to determine PSA velocity and tumour growth rate with GraphPad Prism 4, version 4.03. PSA velocity and tumour growth rate differences were determined using the Student's t-test."}, "DU 145": {"system": "DU 145", "conditions": "cited from earlier work"}}, "data": [{"smiles": "C[C@@](Cc1ccc(O)c(O)c1)(NN)C(=O)O", "note": "[carbidopa, α-Methyl-dopahydrazine]", "values": [{"measurement": "reduction of number of cells relative to control non-treated cells", "setting": "LNCaP cells; day 8, absence of androgen", "result": 1.42, "unit": "fold"}, {"measurement": "reduction of number of cells relative to control non-treated cells", "setting": "LNCaP cells; day 8, presence of androgen (0.1 nM R1881)", "result": 1.69, "unit": "fold"}, {"measurement": "lethality to cancer cell lines", "setting": "[1]", "result": "lethal to several but not all tested neuroendocrine cancer cell lines"}, {"measurement": "reduction of tumour growth rate versus control", "setting": "C4-2 xenografts; 21 days", "result": 2.1, "unit": "fold"}, {"measurement": "decrease in PSA velocity versus control non-treated", "setting": "C4-2 xenografts; over 21 days", "result": 4.1, "unit": "fold"}, {"measurement": "tumour growth rate", "setting": "C4-2 xenografts; pre-castrated mice, 25 mg/kg i.p. daily, 21 days", "result": "5.7±0.6"}, {"measurement": "PSA velocity (rate of PSA production)", "setting": "C4-2 xenografts; pre-castrated mice, 25 mg/kg i.p. daily, over 21 days", "result": "4.7±2"}, {"measurement": "effect on proliferation", "setting": "DU 145", "result": "did not affect proliferation"}]}]}
